{
  "source": "paper PMC10941181",
  "about": "(2024)",
  "key": {"[1]": {"tested_on": "Cy5-Pu24T G4 (DNA, G4) AGCACTCTAGCTCTATGAGGGTGGTGAGGGTGGGGAAGG", "assay": "microscale thermophoresis", "conditions": "100 mM KCl, 10 mM potassium phosphate; pH 7.4, 0.05% Tween 20; 20 nM labelled DNA; GL 0.6 nM to 2.5 μM"}, "[2]": {"tested_on": "R2-Pu24T (G4 DNA) (DNA, G4) AGCACTCTAGCTCTATGAGGGTGGTGAGGGTGGGGAAGG", "assay": "1H NMR imino shifts", "conditions": "K+, 10 mM potassium phosphate; pH 7.4, 298 K"}},
  "data": [
    {"smiles": "Cc1cc(N2CCNCC2)nc(Nc2nc(C)c3ccc4c(c3n2)CCC4)n1", "values": [
      {"measurement": "Kd", "setting": "[1]", "result": "> 0.2", "unit": "µM"},
      {"measurement": "binding", "setting": "[2]", "result": "yes"}
    ]}
  ]
}
